This is an account of results in US7776558B2, “Human G protein-coupled receptor and modulators thereof for the treatment of cell death-related disorders” (Arena Pharmaceuticals, Inc., priority 2003, dated 2010).

In one test the target is T1, human FPRL2 (Homo sapiens, UniProt P25089).
T1 sequence (P25089 with tags, fused parts or gaps): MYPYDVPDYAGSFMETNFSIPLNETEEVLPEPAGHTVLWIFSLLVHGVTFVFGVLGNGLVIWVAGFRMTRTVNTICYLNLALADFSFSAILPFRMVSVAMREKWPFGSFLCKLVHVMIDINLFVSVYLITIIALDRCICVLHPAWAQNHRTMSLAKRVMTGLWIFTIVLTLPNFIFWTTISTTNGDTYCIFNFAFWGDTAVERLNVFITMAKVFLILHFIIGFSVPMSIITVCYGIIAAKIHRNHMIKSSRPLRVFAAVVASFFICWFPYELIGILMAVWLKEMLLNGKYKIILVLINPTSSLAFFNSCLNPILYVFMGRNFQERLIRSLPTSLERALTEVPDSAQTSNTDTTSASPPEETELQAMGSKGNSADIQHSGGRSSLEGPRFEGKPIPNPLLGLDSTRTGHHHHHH
Briefly: [35S]GTPγS binding assay, membranes of transiently transfected CHO cells. Type of test: biochemical. Also noted: expressed in transfected cells; host or cells: CHO-K1 cells, transient, pCMV; plasma membranes. As to the method: The plasmids used were HA/V5 doubled tagged endogenous FPRL2 in pCMV, HA/V5 double-tagged endogenous FPRL1 in pCMV, HAN5 double-tagged endogenous FPR in pCMV, and pCMV alone (See, Example 1). Transient transfections were carried out on CHO-K1 cells. To a 15 cm dish of confluent cells, 12 μg of plasmid DNA and 60 μl Lipofectamine (Invitrogen, Carlsbad, Calif.) were added to each plate. Twenty-four hours post-infection, plasma membranes were isolated as described below. Assays were then run as described below.
“Membrane Scrape Buffer” consists of 20 mM HEPES and 10 mM EDTA, pH 7.4; “Membrane Wash Buffer” consists of […] and 0.1 mM EDTA, pH 7.4; “Binding. Buffer” consists of 20 mM HEPES, 100 mM NaCl, and 10 mM MgCl2, pH 7.4.
All materials were kept on ice throughout the procedure. Firstly, the media was aspirated from a confluent monolayer of transfected cells, followed by rinse with 10 ml cold PBS, followed by aspiration. Thereafter, 10 ml of Membrane Scrape Buffer was added to scrape cells; this was followed by transfer of cellular extract into 50 ml centrifuge tubes (centrifuged at 20,000 rpm for 17 minutes at 4° C.). Thereafter, the supernatant was aspirated and the pellet was resuspended in 30 ml Membrane Wash Buffer followed by centrifuging at 20,000 rpm for 17 minutes at 4° C. The supernatant was then aspirated and the pellet resuspended in Binding Buffer. This was then homogenized using a Brinkman Polytron™ homogenizer (15-20 second bursts until the all material is in suspension). This is referred to herein as “Membrane Protein”. A protein determination (Bradford Protein Assay) was carried out, and the protein concentration of the Membrane Protein was adjusted to 1.0 mg/ml with cold Binding Buffer for each of the experimental samples (FPRL2, FPRL1, FPR, pCMV).
GDP Buffer consisted of 37.5 ml Binding Buffer and 2 mg GDP (Sigma, cat. no. G-7127), followed by a series of dilutions in Binding Buffer to obtain 0.2 μM GDP (final concentration of GDP in each well was 0.1 μM GDP); each well comprising a candidate compound, has a final volume of 200 μl consisting of 100 μl GDP Buffer (final concentration, 0.1 μM GDP), 50 μl Membrane Protein in Binding Buffer, and 50 μl [35S]GTPγS (0.6 nM) in Binding Buffer (2.5 μl [35S]GTPγS per 10 ml Binding Buffer).
First, 100 μl GDP Buffer was added to each well of a Wallac Scintistrip™ (Wallac). […] Thereafter, 50 μl of Membrane Protein was added to each well (a control well comprising membranes without the GPCR Protein was also utilized), and pre-incubated for 5-10 minutes at room temperature. Thereafter, 50 μl of [^35S]GTPγS (0.6 nM) in Binding Buffer was added to each well, followed by incubation on a shaker for 60 minutes at room temperature (again, in this example, plates were covered with foil). The assay was then stopped by spinning of the plates at 4000 RPM for 15 minutes at 22° C. The plates were then aspirated with an 8 channel manifold and sealed with plate covers. The plates were then read on a Wallac 1450 using setting “Prot. #37” (as per manufacturer instructions).

The next test addresses T2, FPR (Homo sapiens, UniProt P21462).
T2 sequence (P21462 1-350): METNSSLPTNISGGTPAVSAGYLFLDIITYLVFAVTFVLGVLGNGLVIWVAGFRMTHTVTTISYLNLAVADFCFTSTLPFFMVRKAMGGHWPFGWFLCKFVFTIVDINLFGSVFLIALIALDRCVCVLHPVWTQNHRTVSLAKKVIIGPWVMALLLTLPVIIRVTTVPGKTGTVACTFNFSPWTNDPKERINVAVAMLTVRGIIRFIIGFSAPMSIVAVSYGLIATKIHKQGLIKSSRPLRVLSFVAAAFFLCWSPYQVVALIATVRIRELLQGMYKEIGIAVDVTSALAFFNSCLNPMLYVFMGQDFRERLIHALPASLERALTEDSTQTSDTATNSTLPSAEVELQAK
Description: IP3 assay, HEK293 cells transiently transfected with FPR (negative control). It is filed as cell-based. Also noted: Full-Length Cloning of Human GPCRs; expressed in transfected cells; host or cells: HEK293 cells, transient. The following applies: not shown.

[1] abbreviates: read-out: EC50 in [35S]GTPγS binding assay.
[2] abbreviates: FIG. 3 panel A, transiently transfected CHO cells, read-out: EC50 at FPRL2, promoted [35S]GTPγS binding.

Several values for one entry are separate records, joined by “and”; a condition that tells them apart may be missing. Equal entries are not always repeated. Entries after “also recorded” stand apart in the source; their conditions may differ. Where two headings read alike, the source gives them in different places. Where no end group is shown, it is not given here.

In the case of `CC(C)c1ccc2c(c1)CCC1C(C)(C(N)=O)CCCC21C` (centres unmarked) [Compound 1, 7-Isopropyl-1,4a-dimethyl-1,2,3,4,4a,9,10,10a-octahydro-phenanthrene-1-carboxylic acid amide], on human FPRL2, the “EC75 in [35S]GTPγS binding assay” value is given as “about 15 μM”. Moreover, the “Activity at human FPRL2, FPRL1 and FPR” value on human FPRL2 (by [35S]GTPγS binding assay and by melanophore assay, FIG. 5) is “robust and selective agonist of FPRL2”. At human FPRL2 (setting [1]), the EC50 is roughly 2800 nM. The “IP3 response in HEK293 cells transiently transfected with FPR” value on FPR is “no IP3 response”.
Regarding `CC[C@H](C)[C@H](NC(=O)[C@H](CCC(=O)O)NC(=O)[C@H](CO)NC(=O)[C@@H](NC(=O)[C@H](CC(C)C)NC(=O)[C@H](CC(C)C)NC(=O)[C@H](CC(C)C)NC(=O)[C@H](CC(C)C)NC(=O)[C@H](CS)NC(=O)[C@H](CO)NC(=O)[C@H](Cc1ccccc1)NC(=O)CNC(=O)[C@H](CCCNC(=N)N)NC(=O)[C@@H]1CCCN1C(=O)[C@H](C)NC(=O)[C@@H](N)CCSC)[C@@H](C)O)C(=O)N[C@@H](CC(=O)O)C(=O)N[C@@H](CC(C)C)C(=O)N1CCC[C@H]1C(=O)N[C@H](C(=O)N[C@@H](CCCCN)C(=O)N[C@@H](CCCNC(=N)N)C(=O)N[C@@H](CCCNC(=N)N)C(=O)N[C@@H](C)C(=O)O)C(C)C` [Humanin], on human FPRL2, the “EC75 in [35S]GTPγS binding assay” value is reported as “about 1.5 μM”. Besides, the EC50 on human FPRL2 (setting [2]) was roughly 320 nM; on human FPRL2 (setting [1]) it was ~320 nM and ~300 nM. For the same molecule, the “IP3 response in HEK293 cells transiently transfected with FPR” value at FPR is given as “no IP3 response”.
Turning to “MAPRGFSCLLLLTGEIDLPVKRRA [[Gly14]-Humanin]”, the EC50 on human FPRL2 (setting [2]) is roughly 72 nM. Further, the “EC50 values at FPRL2 relative to the corresponding values at FPRL1” value at human FPRL2 (FPRL2 versus FPRL1) is “more than an order of magnitude lower”. In addition, the “Agonist activity and selectivity for FPRL2” value at human FPRL2 (compared with FPRL1 and FPR, FIG. 3) was “selective and robust agonists for FPRL2; also recorded: robust and selective agonists for FPRL2”.
